From ChEMBL document CHEMBL6153039, “Synthesis and structural modification of the natural product Ivesinol to discover novel autophagy activators” (Eur J Med Chem, 2025) come the findings set out here.

Activity calls are given as the source filed them. The calls are words filed in the database; no cut-off is given here.

Series [1] relates to MCF7. Briefly: Induction of autophagy in human MCF7 cells assessed as p62/GAPDH ratio (reference value: 0.96). In kind it is functional.
For series [2], the system named is MCF7. Briefly: Induction of autophagy in human MCF7 cells assessed as upregulation of LC3-II to LC3-I ratio at 20 uM incubated for 4 hrs by Western blotting analysis. In kind it is functional, cell-based.
Series [3] has as its system L02. Briefly: Cytotoxicity against human LO2 cells assessed as reduction in cell viability at 0.3125 to 40 uM incubated for 24 hrs by MTT assay. In kind it is toxicity, cell-based. The note with it: l02, 24 h, dose 0.3125-40 µM. For orientation: Tetrazolium assays rely on reduction of a dye to a coloured formazan, in cell work by metabolically active cells.
Series [4] has as its system MCF7. Briefly: Induction of autophagic flux in wild type human MCF7 cells assessed as increase in LC3-I protein level at 10 uM incubated for 4 hrs in the presence of bafilomycin A1 by Western blotting analysis. In kind it is functional, cell-based.
Series [5] concerns MCF7. Briefly: Induction of autophagy in wild type human MCF7 cells assessed as increase in LC3-II level at 10 uM incubated for 6 to 8 hrs by Western blotting analysis. In kind it is functional, cell-based. The note with it: time 6-8 hrs.
The subject of series [6] is MCF7. The experiment in a line: Induction of autophagy in wild type human MCF7 cells assessed as increase in LC3-II level at 20 uM incubated for 4 hrs by Western blotting analysis. Format: functional, cell-based. In general terms: In western blotting, separated proteins are transferred to a membrane and probed.
In series [7] the test system is MCF7. The experiment in a line: Induction of autophagy in human MCF7 cells assessed as increase in LC3-II/LC3-1 rate at 20 uM incubated for 4 hrs by Western blotting analysis. In kind it is functional, cell-based.
The subject of series [8] is MCF7. The experiment in a line: Cytotoxicity against human MCF7 cells assessed as reduction in cell viability at 0.3125 to 40 uM incubated for 24 hrs by MTT assay. In kind it is functional, cell-based. The settings on record: dose 0.3125-40 µM.
Series [9] deals with MCF7. The experiment in a line: Induction of autophagy in human MCF7 cells expressing pEGFP-LC3 assessed as increase in LC3 puncta at 20 uM incubated for 4 hrs by fluorescence microscopic analysis. In kind it is functional, cell-based.
Series [10] deals with MCF7. Briefly: Induction of autophagy in human […] cells assessed as decrease in p62 protein level incubated for 4 hrs by Western blotting analysis. Format: functional, cell-based. The note with it: dose 0.5-10 µM.
Series [11] concerns MCF7. Briefly: Induction of autophagic flux in wild type human MCF7 cells assessed as increase in p62 protein level at 10 uM incubated for 4 hrs in the presence of bafilomycin A1 by Western blotting analysis. Format: functional, cell-based.
Series [12] relates to MCF7. Briefly: Induction of autophagy in pEGFP-LC3-labeled human MCF7 cells assessed as formation of autophagosome by measuring the appearance of clustered granules near the nucleus at 10 uM by laser confocal microscopic imaging analysis. In kind it is functional, cell-based. The note with it: time 1-8 hrs.
For series [13], the system named is MCF7. Briefly: Induction of autophagy in wild type human MCF7 cells assessed as decrease in LC3-I level at 20 uM incubated for 4 hrs by Western blotting analysis. In kind it is functional, cell-based.
Series [14] has as its system BEAS-2B. Briefly: Cytotoxicity against human BEAS-2B cells assessed as reduction in cell viability at 0.3125 to 40 uM incubated for 24 hrs by MTT assay. In kind it is toxicity, cell-based. The note with it: dose 0.3125-40 µM.
Series [15] has as its system MCF7. The experiment in a line: Induction of autophagy in human […] cells increase in LC3-II protein level incubated for 4 hrs by Western blotting analysis. Format: functional, cell-based. The settings on record: dose 0.5-10 µM.
The subject of series [16] is MCF7. The experiment in a line: Induction of autophagic flux in wild type human MCF7 cells assessed as increase in LC3-II protein level at 10 uM incubated for 4 hrs in the presence of bafilomycin A1 by Western blotting analysis. In kind it is functional, cell-based.
A short description of series [17]: Cytotoxicity against human […] cells assessed as reduction in cell viability at 0.3125 to 40 uM incubated for 24 hrs by MTT assay. In kind it is toxicity, cell-based. The note with it: dose 0.3125-40 µM.
Series [18] has as its system MCF7. The experiment in a line: Induction of autophagy in wild type human MCF7 cells assessed as increase in LC3-II level at 10 uM incubated for 1 to 4 hrs by Western blotting analysis. Format: functional, cell-based. The note with it: time 1-4 hrs.
Series [19] has as its system MCF7. Briefly: Induction of autophagy in wild type human MCF7 cells assessed as decrease in p62 level at 10 uM incubated for 1 to 4 hrs by Western blotting analysis. In kind it is functional, cell-based. The note with it: time 1-4 hrs.
Series [20] has as its system HEK293. Briefly: Induction of autophagy in HEK293 cells assessed as increase in LC3-II protein level incubated for 4 hrs by Western blotting analysis. In kind it is functional, cell-based. The note with it: Homo sapiens, dose 0.5-10 µM.
Series [21] has as its system MCF7. Briefly: Induction of autophagy in human MCF7 cells assessed as decrease in p62 level at 20 uM incubated for 4 hrs by Western blotting analysis. In kind it is functional, cell-based.
For series [22], the system named is HEK293. The experiment in a line: Induction of autophagy in HEK293 cells assessed as decrease in p62 protein level incubated for 4 hrs by Western blotting analysis. In kind it is functional, cell-based. The settings on record: Homo sapiens, dose 0.5-10 µM.
Series [23] relates to MCF7. Briefly: Induction of autophagy in human MCF7 cells assessed as p62/GAPDH ratio (reference value: 1.20). In kind it is functional.
For series [24], the system named is MCF7. Briefly: Inhibition of autophagy in human MCF7 cells assessed as increase in LC3-II protein level incubated for 4 hrs by Western blotting analysis. In kind it is functional, cell-based. The note with it: dose 0.1-2 µM.
The test system of series [25] is HEK293. Briefly: Inhibition of autophagy in HEK293 cells assessed as increase in LC3-II protein level incubated for 4 hrs by Western blotting analysis. Format: functional, cell-based. The note with it: Homo sapiens, dose 0.1-2 µM.
The subject of series [26] is MCF7. Briefly: Inhibition of autophagy in human MCF7 cells assessed as increase in LC3-I protein level incubated for 4 hrs by Western blotting analysis. In kind it is functional, cell-based. The settings on record: dose 0.1-2 µM.
Series [27] concerns MCF7. Briefly: Inhibition of autophagy in human MCF7 cells assessed as increase in p62 protein level incubated for 4 hrs by Western blotting analysis. Format: functional, cell-based. The settings on record: dose 0.1-2 µM.
Series [28] relates to HEK293. Briefly: Inhibition of autophagy in HEK293 cells assessed as increase in LC3-I protein level incubated for 4 hrs by Western blotting analysis. Format: functional, cell-based. The settings on record: Homo sapiens, dose 0.1-2 µM.
Series [29] relates to HEK293. The experiment in a line: Inhibition of autophagy in HEK293 cells assessed as increase in p62 protein level incubated for 4 hrs by Western blotting analysis. Format: functional, cell-based. The note with it: Homo sapiens, dose 0.1-2 µM.

`CCCCCc1c(O)c(C)c(OC)c(Cc2c(O)c(CCCCC)c(O)c(C)c2OC)c1O`: the Ratio in [1] is reported as 0.97.
As to `CCCCC(=O)c1c(O)c(C)c(O)c(Cc2c(O)c(C)c(O)c(C(=O)CCCC)c2OC)c1OC`, the outcome in series [2] was Active. Besides, the Ratio in series [1] was found to be 0.84.
Take `COc1c(C)c(O)c(C(=O)C(C)C)c(O)c1Cc1c(O)c(C(=O)C(C)C)c(O)c(C)c1OC`: the Activity result in series [3] is “Toxic”; in series [9], “Active; Higher Activity Observed”; in [10] it was “Dose-dependent-effect”; in series [12], “Time-dependent-effect”; in [14] it was “Toxic”; in [15] it was “Dose-dependent-effect”. The figures for the Activity entry in series [17], in series [20] and in series [22] were “Toxic”, “Dose-dependent-effect” and “Dose-dependent-effect”, respectively. Also, the result in series [4], in series [2], in [6], in [7], in series [8] and in [11] was Active. In addition, the result in series [13], in series [16], in series [18], in series [19] and in series [21] was Active. Besides, the outcome in [5] was inactive. For the same compound, the Ratio in series [1] turned out to be 0.73.
`COc1c(C)c(O)c(C(=O)C(C)C)c(O)c1Cc1c(O)c(C)c(O)c(C(=O)C(C)C)c1OC`: in [2], the result was Active. Moreover, the Ratio in series [23] is on record as 0.7.
Turning to `COc1c(C)c(O)c(C(C)=O)c(O)c1Cc1c(O)c(C(=O)C(C)C)c(O)c(C)c1OC`, the outcome in [2] was Active. Also, the Ratio in [23] is 0.84.
For `COc1c(C)c(O)c(C(=O)C(C)C)c(O)c1Cc1c(O)c(C(=O)C(C)(C)C)c(O)c(C)c1OC`, the outcome in [2] was Active. Also, in [23], the Ratio is 0.98.
Consider `CCCCC(=O)c1c(O)c(C)c(OC)c(Cc2c(O)c(C(=O)CCCC)c(O)c(C)c2OC)c1O`, for which, in series [2], the outcome was Active. Further, the Ratio in series [1] was found to be 0.86.
In the case of `COc1c(C)c(O)c(C(=O)C(C)(C)C)c(O)c1Cc1c(O)c(C(=O)C(C)(C)C)c(O)c(C)c1OC`, the Ratio in [1] turned out to be 1.18.
In the case of `CCCCC(=O)c1c(O)c(C)c(OC)c(Cc2c(O)c(C(C)=O)c(O)c(C)c2OC)c1O`, the result in series [2] was Active. The Ratio in series [23] turned out to be 0.85.
Consider `COc1c(C)c(O)c(CC(C)C)c(O)c1Cc1c(O)c(CC(C)C)c(O)c(C)c1OC`, for which, in series [1], the Ratio stood at 0.95.
As to `CCC(=O)c1c(O)c(Cc2c(O)c(C(=O)CC)c(O)c(C(=O)CC)c2O)c(O)c(C(=O)CC)c1O`, the inhibition entry in series [24], in series [25], in [26], in series [27], in series [28] and in [29] was “Dose-dependent-effect” throughout.
Turning to `CCC(=O)c1c(O)c(C)c(OC)c(Cc2c(O)c(C(=O)C(C)C)c(O)c(C)c2OC)c1O`, the outcome in series [2] was Active. In addition, the Ratio in series [23] is on record as 0.86.
Consider `CCCCC(=O)c1c(O)c(C)c(OC)c(Cc2c(O)c(C)c(O)c(C(=O)CCCC)c2OC)c1O`, for which the Ratio in series [23] stood at 1.05.
Turning to `COc1c(Cc2c(O)c(C)c(O)c(C(=O)C(C)C)c2OC)c(O)c(C)c(O)c1C(=O)C(C)C`, the Ratio in series [1] came out at 0.92.
Turning to `COc1c(C)c(O)c(C(C)=O)c(O)c1Cc1c(O)c(C)c(O)c(C(=O)C(C)C)c1OC`, the outcome in [2] was Active. The Ratio in series [23] was determined as 0.71.
Turning to `CCN(CC)CCCC(C)Nc1ccnc2cc(Cl)ccc12` (stereo unspecified), in series [6], the outcome was Active. For the same compound, the result in series [13] was inactive.
